Results published in the NIST ThermoML archive (doi:10.1016/j.jct.2016.06.034).

Test: osmotic coefficient (dimensionless); mn = molality of the nth substance listed, in mol/kg
Settings: 308.15 K, 84.5 kPa, Liquid, Knauer Osmomat K-7000

CCCCCCCCCCn1cc[n+](C)c1.[Br-] [1-decyl-3-methylimidazolium bromide] + O
Settings | osmotic coefficient
m1 = 0.01036 | 1.233
m1 = 0.01532 | 1.16
m1 = 0.01539 | 1.154
m1 = 0.02001 | 1.11
m1 = 0.02014 | 1.106
m1 = 0.02471 | 1.081
m1 = 0.02479 | 1.075
m1 = 0.03022 | 1.06
m1 = 0.03026 | 1.055
m1 = 0.03486 | 1.021
m1 = 0.0384 | 0.9873
m1 = 0.03983 | 0.9742
m1 = 0.04483 | 0.8983
m1 = 0.04981 | 0.8319
m1 = 0.05918 | 0.735
m1 = 0.06429 | 0.687
m1 = 0.06983 | 0.644
m1 = 0.07967 | 0.579
m1 = 0.08811 | 0.53
m1 = 0.09976 | 0.48
m1 = 0.1175 | 0.417
